Results as given in US9248162B2, “Factor H for treatment of rheumatoid arthritis” (Baxter International Inc., priority 2013, dated 2016).

Test system: C3H kidneys grafted into pre-sensitized recipients
Assay: Pre-sensitized mouse kidney allograft model, CFH with or without FK506, creatinine (Example 1)
Format: in vivo, C57BL/6 (B6) mice
Text: Male C3H (H-2k) and C57BL/6 (B6, H-2b) mice (25-30 g) were used to determine the efficacy of Complement Factor H (CFH) during transplant rejection. C3H mice served as skin graft and kidney donors for pre-sensitization and kidney transplantation. Male C57BL/c (B6) mice were used as recipients. The B6 recipients were pre-sensitized by transplantation of the donor skin grafts, and were subsequently transplanted with kidney allografts between 15 and 20 days after the skin transplantation. B6 mice were treated with vehicle (controls), CFH (day −1, day 0, then every other day to day 10; 8 mg/mouse, i.p.), FK506 (daily from day −1 to day 10; 1 mg/kg s.c.) or the combination of CFH+FK506 using the same dosage regime as the single treatments. Mice were monitored daily for signs of rejection. Renal function was monitored by measuring serum creatinine levels.

Factor H was tested, and the “plasma Cr levels” value (POD7, CFH 8 mg/mouse i.p., controls 1.9±0.1) was 1.4 ± 0.2 mg/dL and the renal allograft function (result in words, creatinine on POD7 (FIG. 2)) was “improving renal allograft function”.
